Results as given in patent US10632101B2, “Methods and compositions for supporting endogenous systems related to life span” (USANA Health Sciences, Inc., priority 2016, dated 2020).

Key:
C. elegans strain CB5586 = assay: Phenotypic lifespan screening in C. elegans; format: in vivo; conditions: for mean lifespan: DMSO control 13.23; for Statistically Significant Result: 10 mg/ml compared to DMSO control; for effect on chronological lifespan: 0.1 and 10 mg/ml tested
Protocol: Dilutions of the test formulations were applied to individual populations of C. elegans and the lifespan of each population was monitored. Any changes in the lifespan of an individual population compared to a control population were recorded and correlated to the respective test formulation (N356 or N357) and the respective dilution (0.1 mg/ml, 1 mg/ml, and 10 mg/ml).
The N256 and N357 formulations were each prepared as individual 100 mg/ml stock solutions in dimethyl sulfoxide (DMSO). Serial dilutions of each stock solution were then prepared at 0.1 mg/ml, 1 mg/ml, and 10 mg/ml in DMSO. Control solutions of DMSO only were also prepared. Synchronous aged adult populations of C. elegans strain CB5586 worms were prepared. The CB5586 strain comprises a pharyngeal GFP (green fluorescent protein) tag and a mutation in the bus-5 gene. The pharyngeal GFP tag allows for fluorescent images of the worm populations to be taken. The mutation in the bus-5 gene causes the loss of normal cuticle antigens that permits the cuticle of the worms to become permeable to the test formulations and allow direct uptake of the test formulations to avoid interaction of the test formulations with protective mechanisms of the gut channel. Each serial dilution of each test formulation was added to a separate population of the prepared worms. The control solutions were also added to separate populations of the prepared worms. The populations of the prepared worms were then maintained on standard nematode growth media (NGM) agar plates at 20° C. with sufficient food (Escherichia coli strain OP-50).
Each worm population was then monitored by fluorescent imaging to determine the number of living and dead worms as a function of time. The fluorescent imaging was analyzed by software that recognized and counted worms based on their fluorescent intensity compared to background fluorescence. […] The ability to distinguish between living and dead worms allowed the number of living worms and a cumulative number of dead worms to be monitored against time. Worm populations from a selection of fluorescent images were manually checked to verify that the software had accurately counted the number of living and dead worms.
The counts of the living and dead worms as a function of time were then analyzed for each of the worm populations and used to prepare Kaplan-Meier survival curves and associated statistics for each of the worm populations. […] The median lifespan is shown as the length of time after the last mitotic division that 50% of the test population remains viable when compared to the control population. The maximum lifespan extension is shown as the length of time after the last mitotic division that 5% of the test population remains viable when compared to the control population.
The counts of the living and dead worms as a function of time and the Kaplan-Meier survival curves and the associated statistics were then analyzed for each of the worm populations. The analysis included determining mean and median lifespan. The analysis included a non-parametric test, the Log-Rank test, which compares two survival functions for the overall lifespan assay and provides a reliable p-value summarizing the whole experiment. The analysis also included Fisher's Exact Test that calculated the significance of survival function comparisons at multiple specific time points throughout the experiment, rather than for the overall lifespan. The results of the analysis are shown below in Tables 10-17.
Phenotypic screening was carried out as described in EXAMPLE 2 for various individual compounds of the N357 formulation. […] Alpha lipoic acid was sourced from PureBulk™ USA as a racemic mix of R and S stereoisomers and was assigned a sample number of N198. Hesperidin was sourced from Sigma Aldrich at ≥80% purity and was assigned a sample number of N347. […]

human NF-κB = assay: NF-κB reporter cell assay, antagonist mode; format: cell-based
mTOR = biological target: T1, mTOR (Homo sapiens, UniProt P42345); conditions: cited from earlier work
T1 construct: host or cells: isolated cells in culture (not specified)

In the case of COc1ccc([C@@H]2CC(=O)c3c(O)cc(O[C@@H]4O[C@H](CO[C@@H]5O[C@@H](C)[C@H](O)[C@@H](O)[C@H]5O)[C@@H](O)[C@H](O)[C@H]4O)cc3O2)cc1O [N347, Hesperidin], the “extension of lifespan (Kaplan-Meier figure)” value (C. elegans strain CB5586; 0.1 mg/ml) is reported as “about 10%”, the “% Change in Mean Lifespan” value (C. elegans strain CB5586; 0.1 mg/ml compared to DMSO control) is reported as “+10%” and the “mean lifespan” value (C. elegans strain CB5586; 0.1 mg/ml) is reported as 14.55 days. The “Statistically Significant Result” value (C. elegans strain CB5586) was “No statistical difference”, the “mean lifespan” value (C. elegans strain CB5586; 10 mg/ml) was 14.19 days and the “effect on chronological lifespan” value (C. elegans strain CB5586) was “significant positive and dose-dependent increase of chronological lifespan”.

In the case of O=c1c(O)c(-c2ccc(O)c(O)c2)oc2cc(O)cc(O)c12 [Quercetin, 2-(3,4-dihydroxyphenyl)-3,5,7-trihydroxy-4H-chromen-4-one], the “Statistically Significant Result” value (C. elegans strain CB5586) is reported as “No statistical difference”, the “effect on chronological lifespan” value (C. elegans strain CB5586) is reported as “significant negative effect on chronological lifespan” and the “NF-κB % Inhibition” value (human NF-κB; 0.84 μg/ml) is reported as −6%.

With C[C@@H]1O[C@@H](OC[C@H]2O[C@@H](Oc3c(-c4ccc(O)c(O)c4)oc4cc(O)cc(O)c4c3=O)[C@H](O)[C@@H](O)[C@@H]2O)[C@H](O)[C@H](O)[C@H]1O [Rutin, 2-(3,4-dihydroxyphenyl)-5,7-dihydroxy-3-[α-L-rhamnopyranosyl-(1→6)-β-D-glucopyranosyloxy]-4H-chromen-4-one] the “NF-κB % Inhibition” value (human NF-κB; 1.11 μg/ml) was 10%.

For Cn1c(=O)c2c(ncn2C)n(C)c1=O [caffeine], the “mTOR inhibition” value (mTOR; applied to isolated cells in culture) is listed as “inhibit mTOR” and the “mTOR inhibition, mitophagy and mitochondrial turnover” value (mTOR) is listed as “inhibit mTOR, up-regulate mitophagy, and increase the rate of mitochondrial turnover”.
